Entries after “also recorded” stand apart in the source; their conditions may differ.
Tests used:
GST-HDAC8 [1] = test: Circular dichroism binding study with GST-HDAC8; parameters: species or system human; conditions: GST-HDAC8 (2 μM) + peptide (500 nM), 25 °C, 190-300 nm
Experimental: (§1) hHDAC8 (Full length) cDNA was amplified by using a polymerase chain reaction (PCR) with forward primer: 5′– […]-3′ and a reverse primer: 5’–[…]–3′. The PCR product was then sub cloned into pGEX- 6P1 plasmid. Clone was then overexpressed in Escherichia coli strain BL21 (DE3) with standardized expression conditions of 0.1 mM IPTG at 28 °C for 4 h. Induced culture pellet was lysed in 1XPBS buffer (140 mM NaCl, 2.7 mM KCl, 10 mM Na2HPO4, 1.8 mM KH2PO4) along with 1X Protease inhibitor cocktail, 1 mM PMSF, and 0.1 mM DTT. To the lysate 1% Triton X 100 is added and centrifuged for 20 min at a speed of 4000 rpm at 4 °C. Clear supernatant was used for binding with GST binding buffer (25 mM Tris pH 7.5, 300 mM NaCl, 1 mM EDTA, 1X Protease inhibitor cocktail) for 3 h on a rota spin at 4 °C. Binding was followed by collection of unbound and washes with 1X PBS (5 washes). Elutions were collected in 10 mM reduced glutathione, dissolved in 50 mM Tris pH 8.0. The purity of the protein was then analysed on SDS PAGE, followed by Western blot. Activity was then determined by HDAC activity assay.
Binding studies of GST-HDAC8 protein (2 μM) and acetylated (Lys40) or unacetylated alpha tubulin peptides (500 nM) were carried out on Jasco J-1500 (model L-1500-450) CD spectroscopy. Changes incurred in the secondary structure of GST-HDAC8 upon binding of the peptides were recorded as the mean ellipticity, with given set of parameters: start wavelength of 300 nm, end wavelength of 190 nm, scan speed of 100 nm/min, band width of 2 nm, cuvette cell size of 2 mm and at a temperature of 25 °C with two scan accumulations.

GST-HDAC8 [2] = test: HPLC-based in vitro deacetylation assay with GST-HDAC8; type: biochemical, human; conditions: GST-HDAC8 (2 μM; 30 μg) + peptide (500 nM), 15 min, 37 °C, 50 mM Tris pH 7.5, 1 mM DTT, HPLC C18
Experimental: as §1
In vitro deacetylation assay of custom synthesized acetylated (Lys40) alpha tubulin was carried out on HPLC (Schimadzu) with C18 (4.6 × 250 mm) column as described earlier. […]

[3] = tested on: acetylated alpha tubulin, HEK 293 T; test: Immunoblot of acetylated alpha tubulin in HEK 293 T cells; type: cell-based, human; conditions: 24 h; for acetylated alpha tubulin levels: HEK 293 T
Experimental: (§2) Human embryonic kidney cells, HEK293T, human cervical carcinoma cells, HeLa, human breast cancer cells, MDA-MB 231, human lung adenocarcinoma cellsA549, chronic myeloid leukemia cells, K562, and human colon cancer cells, HCT11, were obtained from National Centre for Cell Sciences (NCCS), Pune, India. Cell line authentication by STR analysis was performed for 10 genetic loci for all the cell lines by Life code, Genomic technologies Pvt. Ltd., and tested for mycoplasma negative by performing PCR (mycoplasma specific genes) using EZdetect PCR kit for mycoplasma detection (CCK009). All the cells were cultured in high glucose DMEM medium containing 10% foetal bovine serum and 1% Penicillin/streptomycin (Himedia). Cells were seeded in 60 mm dishes and upon attaining 80–90% confluency, treatment was given with PCI-34051(Cayman Chemicals) (10 μM/20 μM) and tubastatin (5 μM) for 24 h or both in combination (PCI-34051 and Tubastatin) and Forskolin (Sigma) (10 μM) for 45 min independently along with untreated control as described earlier.
(§3) Total, cytoplasmic and nuclear fractions of HeLa or HEK 293 T cells treated with or without PCI-34051 (20 μM), [12] tubastatin (5 μM) and/or forskolin (10 μM) were prepared as described previously. Total protein samples of HEK 293 T, HeLa, MDAMB 231, K562, A549 and HCT11 cells / immunoprecipitated HDAC8 and HDAC6 samples from both HeLa and HEK 293 T lysates / HDAC8 siRNA transfected HEK 293 T and HeLa lysates were also prepared. The proteins were separated on 10 or 12% SDS-PAGE, transferred on to nitrocellulose membrane and probed with primary antibodies of HDAC8, Beta actin, Alpha tubulin, anti-acetylated alpha tubulin, HDAC6 and GAPDH. The bands were visualized using chemiluminiscence after probing with HRP-conjugated secondary antibody.
(§4) Source for siRNA oligonucleotides were considered from with sequence, HDAC8 Sense: […] and Anti-sense: […]. The oligonucleotides were converted into siRNA by following standard protocol as described earlier. HeLa and HEK 293 T cells were transfected with HDAC8 siRNA (10–15 μg/100 mm dish) using lipofectamine 2000 (Invitrogen), and considering untransfected as control. Cells were harvested after 72 h of post-transfection and processed for total RNA and protein isolation.

[4] = tested on: acetylated alpha tubulin, HeLa; test: Immunoblot of acetylated alpha tubulin in HeLa cells; type: cell-based, human; conditions: 24 h
Experimental: as §2, §3, §4

HeLa cells [5] = test: Cell migration (wound) assay in HeLa cells; type: cell-based, human
Experimental: HeLa cells are grown in 6 well plates in duplicates till it attains 90% confluency and starved with serum free media for overnight. Using a sterile 200 μl tip wound is created by drawing straight lines at three different points in each well. Detached cells are aspirated and washed three times with 1XPBS. Cells are treated with PCI-34051 (10 μM & 20 μM) and Paclitaxel (10 μM & 20 μM) dissolved in 2% FBS respectively along with control (untreated). Migrated cells into the wound were examined by capturing images using Olympus CKX41, ProgRes CT3 phase contrast microscope after 24 and 48 h.

HeLa cells [6] = test: Cell morphology analysis, HeLa; type: cell-based, human; conditions: 20 μM
Experimental: (§5) HeLa and HEK 293 T cells are cultured in 6 well plates till attaining 70% confluency. Cells are starved for 12 h without serum and treated with PCI-34051 (20 μM) and Paclitaxel (20 μM) along with untreated control for 24 & 48 h. Examined difference in the morphology was captured by Olympus CKX41, ProgRes CT3 phase contrast microscope at 10X focussed lens.

HEK 293 T cells [7] = test: Cell morphology analysis, HEK 293 T; type: cell-based, human; conditions: 20 μM, 24 & 48 h, vs control
Experimental: as §5

HeLa cells [8] = test: Cell cycle analysis, HeLa; type: cell-based, human; conditions: PCI-34051 (20 μM), 48 h, vs untreated control
Experimental: (§6) Cells (HeLa & HEK 293 T) were grown to attain 70% confluency and were serum starved for 12 h, followed by treatments with PCI-34051 (20 μM) and Paclitaxel (20 μM) respectively for 48 h and processed for cell cycle analysis.

HEK 293 T cells [9] = test: Cell cycle analysis, HEK 293 T; type: cell-based, human; conditions: PCI-34051 (20 μM), 48 h
Experimental: as §6

HDAC8 = conditions: cited from earlier work
Description: The cytoplasmic localization of HDAC8 was further confirmed by immunoblot analysis using total, cytoplasmic and nuclear protein fractions of HEK 293 T and HeLa (Fig. 1d). […] With forskolin treatment, there was significant inc ... || In silico and spectroscopy based results have confirmed the interaction of HDAC8 with alpha tubulin & acetylated alpha tubulin peptide. To further validate the functional interaction we carried out IP and co-IP experiments with HDAC8 and acetylated alpha tubulin (ac-tubulin) antibodies. […] Densitometry results for the fold expression ...

DGQMPSDKTIGGGD [ac-alpha tubulin peptide, Custom synthesized peptides of alpha tubulin 33–46 amino acids, Acetylated alpha tubulin peptide, at Lys40 …]
change in secondary structure of GST-HDAC8 (CD) (GST-HDAC8 [1]): significant change in the secondary structure of GST-HDAC8
change in secondary structure of GST-HDAC8 (CD) (GST-HDAC8 [1]; listed as acetylated alpha tubulin): change in the secondary structure of GST-HDAC8; also recorded: significant change in the secondary structure
in vitro deacetylation by GST-HDAC8 (shift to retention time of unacetylated peptide) (GST-HDAC8 [2]): clearly demonstrates the in vitro deacetylation of ac-alpha tubulin by GST-HDAC8
in vitro deacetylation by GST-HDAC8 (shift to retention time of unacetylated peptide) (GST-HDAC8 [2]; listed as acetylated alpha tubulin (Lys40) peptide): significant peak shift in the retention time corresponding to unacetylated peptide

CN1CCc2c(c3ccccc3n2Cc2ccc(C(=O)NO)cc2)C1 [Tubastatin]
acetylated alpha tubulin levels, compared to PCI-34051 (20 μM) treated condition ([3]; HEK 293T, tubastatin (5 μM) vs PCI-34051 (20 μM)): increases ac-alpha tubulin levels
acetylated alpha tubulin levels ([3]; tubastatin (5 μM), HDAC6 inhibition): increase in ac-alpha tubulin levels

COc1ccc(Cn2ccc3ccc(C(=O)NO)cc32)cc1 [PCI-34051]
acetylated alpha tubulin levels, compared to tubastatin treated condition ([4]; PCI-34051 (20 μM) vs tubastatin): Increased ac-alpha tubulin levels
acetylated alpha tubulin levels ([4]; PCI-34051 (20 μM)): ac-alpha tubulin levels increase; also recorded: increased acetylated alpha tubulin levels; also recorded: increased the acetylation of alpha tubulin in HeLa
acetylated alpha tubulin levels ([3]; PCI-34051 (20 μM)): no significant increase
migration efficiency (HeLa cells [5]; PCI-34051 (10 μM & 20 μM), upto 48 h): significantly decreased
migration efficiency (rank order) (HeLa cells [5]; PCI-34051 (10 μM) or Paclitaxel (10 μM), 24 and 48 h): Control> > Paclitaxel>PCI-34051
cell size during migration assay (HeLa cells [5]; PCI-34051, upto 48 h): notable decrease in cell size
cell morphology effect compared with positive control (HeLa cells [6]; HeLa (shrinkage) and HEK 293 T (clump formation)): quite comparable to that of paclitaxel treated condition
cell morphology (cell size) (HeLa cells [6]; HeLa, 24 & 48 h, vs control): reduced (shrinking) cell size; also recorded: decreased cell size (shrinking)
cell morphology (aggregation / clump formation) (HEK 293 T cells [7]): clump formation; also recorded: cell aggregation
mitotic phase of cell cycle (HeLa cells [8]): significant (p < 0.05) reduction in mitotic phase
sub G0/G1 peak (HeLa cells [8]): increased sub G0/G1 peak
mitotic phase of cell cycle (HEK 293 T cells [9]): did not show any mitotic phase reduction; also recorded: no major significant change in the mitotic phase
sub G0/G1 phase (HEK 293 T cells [9]): significant increase in the sub G0/G1 phase
HDAC8 selectivity (HDAC8): HDAC8 selective inhibitor

DGQMPSDKTIGGGD [Unac-alpha tubulin peptide, Custom synthesized, Unacetylated Alpha tubulin peptide …]
change in secondary structure of GST-HDAC8 (CD) (GST-HDAC8 [1]; listed as unacetylated form): without any notable differences
change in secondary structure of GST-HDAC8 (CD) (GST-HDAC8 [1]; listed as unacetylated tubulin): not observed
